Patent publication US20240277246A1, “MANGANESE-ENHANCED MAGNETIC RESONANCE IMAGING” (IC Targets AS, priority 2021, published 2024)
Read-outs that look alike come from different tables or passages of the source.

Key:
[1] = test system: cardiomyocytes (left ventricle myocardium; uptake via L-type calcium channels); experiment: Manganese-enhanced T1 mapping MRI, kinetic analysis of cardiomyocyte cellular manganese uptake after MnDPDP infusion; format: in vivo, human
Method: A midventricular short axis view was used and a region of interest in the left ventricle myocardium and a region of interest in the blood in the ventricular cavity was used for measurements. […] The total infusion time was 7.5 minutes. T1 mapping MRI was performed every 2.5 minutes for a total of 40 minutes to collect data for kinetic analysis.
After the examination, the myocardial T1 values were converted to changes in relaxation rates from the baseline values according to equation 12. The heamocrit for the subject was measured to 0.44 and the plasma T1 values were converted to changes in relaxation rates according to equation 13.
This is what would be expected from the loss of cells without a loss of individual cell function. Thus, by applying the prior art method, it would therefore wrongly be concluded that the cellular manganese flux rate was reduced.
The rate constant for cardiomyocyte intracellular relaxivity increase Kcell^ΔR1, and thus the cardiomyocyte cellular manganese uptake rate Kcell^Mn, was calculated according to the invention, applying equation 20 where the constant KECF was set equal to 1. The Kcell^Mn value was 0.0650 min^−1. The data used to calculate the rate constant is shown graphically in FIG. 8 (“ict”), corresponding to a straight line with slope=Kcell^Mn=0.0650 min^−1 and intercept=ECV=0.35. […]
If the ECF was in equilibrium with plasma, the slope would be the ECV=0.322. However, due to the uptake of manganese into the cardiomyocytes, the ECF is in dynamic equilibrium with plasma with a manganese concentration ratio of
Assuming that the rate constant for diffusion between plasma and the ECF is the same in both directions, K1=K2 and K3/K1=1/KECF−1=1/0.72−1=0.40.
When the ratio between the manganese concentration in the ECF and plasma can be estimated, the apparent cellular rate constant Kcell^Mn*KECF can be converted to the actual cellular uptake rate constant Kcell^Mn by division with KECF.

[2] = corresponds to end of infusion
Method: A midventricular short axis view was used and a region of interest in the left ventricle myocardium and a region of interest in the blood in the ventricular cavity were used for measurements. […] The total infusion time was 7.5 minutes. T1 mapping MRI was performed every 2.5 minutes for a total of 40 minutes to collect data for kinetic analysis.
After the examination, the myocardial T1 values were converted to changes in relaxation rates from the baseline values according to equation 12. The heamocrit for the subject was measured to 0.41 and the plasma T1 values were converted to changes in relaxation rates according to equation 13.
A midventricular short axis view was used in each patient and a region of interest in the left ventricle myocardium and a region of interest in the blood in the ventricular cavity was used for measurements. […] The total infusion time was 7.5 minutes. T1 mapping MRI was performed every 2.5 minutes for a total of 40 minutes to collect data for kinetic analysis.
After the examinations, the myocardial T1 values were converted to changes in relaxation rates from the baseline values according to equation 12. The average heamocrit for the 5 subjects was measured to 0.416 and the plasma T1 values were converted to changes in relaxation rates according to equation 13.

time at which plasma ΔR1 is highest ([2]; healthy volunteer): 7.5 min
Compound: Cc1ncc(COP(=O)(O)O)c(CN(CCN(CC(=O)[O-])Cc2c(COP(=O)(O)O)cnc(C)c2O)CC(=O)[O-])c1O.[Mn+2] [MnDPDP, manganese (II) N,N′-dipyridoxyl-ethylenediamine-N,N′-diacetate-5,5′-bis(phosphate)]
cardiomyocyte cellular manganese uptake rate Kcell^Mn (corrected by division with KECF) ([1]; average of 5 patients with hypertrophic cardiomyopathia, KECF 0.72): 0.096
apparent cellular rate constant Kcell^Mn*KECF ([1]; average of 5 patients with hypertrophic cardiomyopathia, linear regression without restrictions to the intercept): 0.0691
slope of the Patlak line (prior art method) ([1]; healthy volunteer, 5 μmol/kg infusion over 7.5 min): 0.0484 min⁻¹
cardiomyocyte cellular manganese uptake rate Kcell^Mn ([1]; healthy volunteer, 5 μmol/kg infusion over 7.5 min, equation 20, KECF set to 1, forced intercept ECV 0.25): 0.0591 min⁻¹
uptake rate constant by the Patlak method of prior art ([1]; patient with dilated cardiomyopathia, 5 μmol/kg infusion over 7.5 min): 0.0429
cardiomyocyte cellular manganese uptake rate Kcell^Mn ([1]; patient with dilated cardiomyopathia, 5 μmol/kg infusion over 7.5 min, equation 20, KECF set to 1, forced intercept ECV 0.35): 0.0650 min⁻¹
time at which plasma ΔR1 is highest ([2]; average of 5 patients with hypertrophic cardiomyopathia): 7.5 min
time at which plasma ΔR1 is highest ([2]; patient with dilated cardiomyopathia): 7.5 min
